PubChem BioAssay (NCI)
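All cell lines were grown in 96-well plates and treated with compound for 48 hours. TGI: total growth inhibition.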

How the values were obtained:
Experiment in all cases: growth of human tumour cells (NCI), 48 h
786-0 renal = test system: 786-0 renal
A498 renal = test system: A498 renal
A549 NSCLC = test system: A549 NSCLC
ACHN renal = test system: ACHN renal
BT-549 breast = test system: BT-549 breast
CAKI-1 renal = test system: CAKI-1 renal
CCRF-CEM leukemia = test system: CCRF-CEM leukemia
COLO 205 colon = test system: COLO 205 colon
DU-145 prostate = test system: DU-145 prostate
EKVX NSCLC = test system: EKVX NSCLC
HCT-116 colon = test system: HCT-116 colon
HCT-15 colon = test system: HCT-15 colon
HL-60(TB) leukemia = test system: HL-60(TB) leukemia
HOP-62 NSCLC = test system: HOP-62 NSCLC
HOP-92 NSCLC = test system: HOP-92 NSCLC
HS 578T breast = test system: HS 578T breast
HT29 colon = test system: HT29 colon
IGROV1 ovarian = test system: IGROV1 ovarian
K-562 leukemia = test system: K-562 leukemia
KM12 colon = test system: KM12 colon
LOX IMVI melanoma = test system: LOX IMVI melanoma
M14 melanoma = test system: M14 melanoma
MALME-3M melanoma = test system: MALME-3M melanoma
MCF7 breast = test system: MCF7 breast
MDA-MB-231 breast = test system: MDA-MB-231 breast
MDA-MB-435 = test system: MDA-MB-435
MDA-N = test system: MDA-N
MOLT-4 leukemia = test system: MOLT-4 leukemia
NCI-H226 lung = test system: NCI-H226 lung
NCI-H23 lung = test system: NCI-H23 lung
NCI-H460 lung = test system: NCI-H460 lung
NCI-H522 lung = test system: NCI-H522 lung
NCI/ADR-RES ovarian = test system: NCI/ADR-RES ovarian
OVCAR-3 ovarian = test system: OVCAR-3 ovarian
OVCAR-4 ovarian = test system: OVCAR-4 ovarian
OVCAR-5 ovarian = test system: OVCAR-5 ovarian
OVCAR-8 ovarian = test system: OVCAR-8 ovarian
PC-3 prostate = test system: PC-3 prostate
RPMI-8226 leukemia = test system: RPMI-8226 leukemia
RXF 393 renal = test system: RXF 393 renal
SF-295 CNS = test system: SF-295 CNS
SK-MEL-2 melanoma = test system: SK-MEL-2 melanoma
SK-MEL-28 melanoma = test system: SK-MEL-28 melanoma
SK-MEL-5 melanoma = test system: SK-MEL-5 melanoma
SN12C renal = test system: SN12C renal
SNB-19 CNS = test system: SNB-19 CNS
SW-620 colon = test system: SW-620 colon
T-47D breast = test system: T-47D breast
TK-10 renal = test system: TK-10 renal
U251 CNS = test system: U251 CNS
UACC-257 melanoma = test system: UACC-257 melanoma
UACC-62 melanoma = test system: UACC-62 melanoma
UO-31 renal = test system: UO-31 renal
HCC-2998 colon = test system: HCC-2998 colon
SF-268 CNS = test system: SF-268 CNS
SF-539 CNS = test system: SF-539 CNS
SK-OV-3 ovarian = test system: SK-OV-3 ovarian
SNB-75 CNS = test system: SNB-75 CNS
SR leukemia = test system: SR leukemia

Measured: TGI

O=C1NC(=O)C(C(c2ccc(Cl)cc2)C2C(=O)NC(=O)NC2=O)C(=O)N1
not listed: HCC-2998 colon | SF-268 CNS | SF-539 CNS | SK-OV-3 ovarian | SNB-75 CNS | SR leukemia
> 100 µM: all other assays above

O=S1(=O)CS(=O)(=O)OCCCO1
not listed: BT-549 breast
> 100 µM: all other assays above

CC(C)CC(=O)NC(NC(C)C)(C(F)(F)F)C(F)(F)F
not listed: A498 renal | M14 melanoma | NCI-H23 lung | OVCAR-3 ovarian | OVCAR-5 ovarian | SF-295 CNS | SK-OV-3 ovarian
> 100 µM: all other assays above
